Data published in ChEMBL document CHEMBL1201862, “PubChem BioAssay data set” (2004).
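Following 48 hours of exposure in 96-well plates, responses at five concentrations were used to interpolate endpoints linearly. At the GI50, growth is halved.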 The source made the active and inactive calls. Rule as the data show it: active = GI50 up to about 1.1 µM and inactive = higher.

How the values were obtained:
Assay in all cases: NCI tumour cell line growth inhibition, 48 h
DU-145 = tested on: DU-145
SNB-75 = tested on: SNB-75
IGROV-1 = tested on: IGROV-1
SF-295 = tested on: SF-295
NCI-H226 = tested on: NCI-H226
SN12C = tested on: SN12C
SW-620 = tested on: SW-620
Malme-3M = tested on: Malme-3M
T47D = tested on: T47D
PC-3 = tested on: PC-3
OVCAR-5 = tested on: OVCAR-5
UO-31 = tested on: UO-31
SF-539 = tested on: SF-539
SK-MEL-2 = tested on: SK-MEL-2
SR = tested on: SR
OVCAR-8 = tested on: OVCAR-8
HCT-15 = tested on: HCT-15
MOLT-4 = tested on: MOLT-4
MDA-MB-435 = tested on: MDA-MB-435
HL-60 = tested on: HL-60

SMILES	GI50 (DU-145)	GI50 (SNB-75)	GI50 (IGROV-1)	GI50 (SF-295)	GI50 (NCI-H226)	GI50 (SN12C)	GI50 (SW-620)	GI50 (Malme-3M)	GI50 (T47D)	GI50 (PC-3)	GI50 (OVCAR-5)	GI50 (UO-31)	GI50 (SF-539)	GI50 (SK-MEL-2)	GI50 (SR)	GI50 (OVCAR-8)	GI50 (HCT-15) [µM]	GI50 (MOLT-4)	GI50 (MDA-MB-435)	GI50 (HL-60)
CC(C)C(=O)NCC[C@@H](CNC(=O)OC(C)(C)C)NC(=O)OC(C)(C)C	> 100 µM (inactive)	> 100 µM (inactive)	> 100 µM (inactive)	> 100 µM (inactive)	> 100 µM (inactive)	> 100 µM (inactive)	> 100 µM (inactive)	> 100 µM (inactive)	> 100 µM (inactive)	> 100 µM (inactive)	> 100 µM (inactive)	> 100 µM (inactive)	> 100 µM (inactive)	> 100 µM (inactive)	> 100 µM (inactive)	> 100 µM (inactive)	> 100	> 100 µM (inactive)	> 100 µM (inactive)	–
O=C(CSCC(=O)N/N=C\c1ccc(-c2ccccc2)cc1)N/N=C\c1ccc(-c2ccccc2)cc1	33 µM (inactive)	16.3 µM (inactive)	11.8 µM (inactive)	18.2 µM (inactive)	28.8 µM (inactive)	24.7 µM (inactive)	16.3 µM (inactive)	27.2 µM (inactive)	34.9 µM (inactive)	30.4 µM (inactive)	29.6 µM (inactive)	28.5 µM (inactive)	19.4 µM (inactive)	16 µM (inactive)	6.58 µM (inactive)	24.6 µM (inactive)	26.1	25.3 µM (inactive)	18.8 µM (inactive)	–
CCCCC1(NN=C2CCCCC2)C(=O)N(c2ccccc2)N(c2ccccc2)C1=O	> 100 µM (inactive)	> 100 µM (inactive)	> 100 µM (inactive)	> 100 µM (inactive)	–	> 100 µM (inactive)	> 100 µM (inactive)	–	> 100 µM (inactive)	> 100 µM (inactive)	–	> 100 µM (inactive)	> 100 µM (inactive)	–	17.3 µM (inactive)	> 100 µM (inactive)	> 100	26.2 µM (inactive)	> 100 µM (inactive)	18.1 µM (inactive)
CC1=C/C(=N\NS(=O)(=O)c2ccc([N+](=O)[O-])cc2)CC(C)(C)C1	> 100 µM (inactive)	–	57.5 µM (inactive)	> 100 µM (inactive)	–	73.5 µM (inactive)	> 100 µM (inactive)	> 100 µM (inactive)	> 100 µM (inactive)	> 100 µM (inactive)	> 100 µM (inactive)	80.7 µM (inactive)	> 100 µM (inactive)	> 100 µM (inactive)	79.6 µM (inactive)	> 100 µM (inactive)	49.8	> 100 µM (inactive)	> 100 µM (inactive)	> 100 µM (inactive)
Cc1cccc(NC(=O)/C=C/c2ccc([N+](=O)[O-])cc2)c1	> 38.7 µM (inactive)	30.1 µM (inactive)	18.5 µM (inactive)	29 µM (inactive)	> 46.7 µM (inactive)	> 41.2 µM (inactive)	> 45.3 µM (inactive)	0.838 µM (active)	> 37.8 µM (inactive)	14.7 µM (inactive)	> 42.6 µM (inactive)	> 35.5 µM (inactive)	> 29.8 µM (inactive)	20 µM (inactive)	11.7 µM (inactive)	> 37.2 µM (inactive)	> 35.1	> 36.4 µM (inactive)	> 36.6 µM (inactive)	–
C#CCn1ncc2c(SCc3ccccc3)ncnc21	> 100 µM (inactive)	40.8 µM (inactive)	> 100 µM (inactive)	53.5 µM (inactive)	> 100 µM (inactive)	> 100 µM (inactive)	> 100 µM (inactive)	> 100 µM (inactive)	3.05 µM (inactive)	86.1 µM (inactive)	> 100 µM (inactive)	89.7 µM (inactive)	> 100 µM (inactive)	> 100 µM (inactive)	18.8 µM (inactive)	> 100 µM (inactive)	> 100	11.8 µM (inactive)	99.5 µM (inactive)	–
